# Like-named read-outs stand apart in the source and are kept apart here.
# Assays:
# [1] = system: Escherichia Coli (T) O26 B6; experiment: Experimental infection with Escherichia Coli (T) O26 B6 in mice (21.5 g, culture diluted 1/6); type: in vivo, male mice
# Procedure: (§1) The product of Example 4 was studied for its activity against an experimental infection of Escherichia Coli in groups of 10 male mice weighing about 21.5 g. The mice recieved an intraperitoneal injection of 0.5 ml of a 24 hour old culture in a nutritive media of Escherichia Coli (T) O26 B6 of the Pasteur Institute diluted 1/6 with distilled water. The test product was administered subcutaneously or orally 1 hour and 5 and 24 hours after the infection and the number of dead was determined after 8 days.
# [2] = system: Escherichia Coli (T) O26 B6; experiment: Experimental infection with Escherichia Coli (T) O26 B6 in mice, repeated (22.5 g, culture diluted 1/5.5); type: in vivo
# Procedure: as §1
# The procedure was repeated with mice weighing about 22.5 g with an intraperitoneal injection of a 24 hour old culture of Escherichia Coli (T) O26 B6 diluted 1/5.5 with distilled water with the product of Example 4.
# [3] = system: Enterobacter cloacae 681; experiment: MIC, dilution in liquid medium; type: cell-based
# Method in brief: (§2)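 Tube dilution in sterile nutrient broth with increasing compound doses, each tube inoculated with the strain. Incubation 24 to 48 hours at 37° C; MIC (g/ml) read by transillumination.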
# [4] = system: Pseudomonas 3 935 Exp. SG; experiment: MIC, dilution in liquid medium; type: cell-based; conditions: Pseudomonas, 3935EXP.SG
# Method in brief: as §2
# [5] = system: Staphylococcus aureus exp. n° 54 146; experiment: MIC, dilution in liquid medium; type: cell-based; conditions: Staphylococcus aureus
# Method in brief: as §2
# [6] = system: Escherichia Coli Sensible Tetracycline ATCC 9 637 = 1020; experiment: MIC, dilution in liquid medium; type: cell-based; conditions: for MIC: Escherichia coli
# Method in brief: as §2
# [7] = system: Providencia Du 48; experiment: MIC, dilution in liquid medium; type: cell-based; conditions: for MIC: Providencia
# Method in brief: as §2
# [8] = system: Staphylococcus aureus UC 1 128 Pen-Resistant; experiment: MIC, dilution in liquid medium; type: cell-based; conditions: Staphylococcus aureus
# Method in brief: as §2
# [9] = system: Salmonella typhimurium 420; experiment: MIC, dilution in liquid medium; type: cell-based; conditions: Salmonella enterica, TYPHIMURIUM
# Method in brief: as §2
# [10] = system: Straphylococcus Smith; experiment: MIC, dilution in liquid medium; type: cell-based
# Method in brief: as §2
# [11] = system: Streptococcus pyogenes A 561; experiment: MIC, dilution in liquid medium; type: cell-based; conditions: for MIC: Streptococcus pyogenes, read-out: M.I.C.
# Method in brief: as §2
# [12] = system: Proteus vulgaris (indol+) A 232; experiment: MIC, dilution in liquid medium; type: cell-based
# Method in brief: as §2
# [13] = system: Escherichia Coli E6; experiment: MIC, dilution in liquid medium; type: cell-based
# Method in brief: as §2
# [14] = system: Bacillus subtilis ATCC 6 633; experiment: MIC, dilution in liquid medium; type: cell-based; conditions: for MIC: Bacillus subtilis
# Method in brief: as §2
# [15] = system: Escherichia Coli Exp. TO26 B6; experiment: MIC, dilution in liquid medium; type: cell-based; conditions: Escherichia coli
# Method in brief: as §2
# [16] = system: Klebsiella pneumoniae Exp. 52 145; experiment: MIC, dilution in liquid medium; type: cell-based; conditions: Klebsiella pneumoniae, read-out: M.I.C.
# Method in brief: as §2
# [17] = system: Streptococcus faecalis 5 432; experiment: MIC, dilution in liquid medium; type: cell-based
# Method in brief: as §2
# [18] = system: Streptococcus faecalis 99 F 74; experiment: MIC, dilution in liquid medium; type: cell-based; conditions: Enterococcus faecalis
# Method in brief: as §2
# [19] = system: Escherichia Coli Galle; experiment: MIC, dilution in liquid medium; type: cell-based
# Method in brief: as §2
# [20] = system: Pseudomonas 8951 RGT; experiment: MIC, dilution in liquid medium; type: cell-based
# Method in brief: as §2
# [21] = system: Serratia Resistant Gentamicine 2 532; experiment: MIC, dilution in liquid medium; type: cell-based
# Method in brief: as §2
# [22] = system: Escherichia Coli Resistant Tetracycline ATCC 11 303 = UC 1261; experiment: MIC, dilution in liquid medium; type: cell-based; conditions: Escherichia coli, read-out: M.I.C.
# Method in brief: as §2
# [23] = system: Proteus mirabilis (indol-) A 235; experiment: MIC, dilution in liquid medium; type: cell-based; conditions: Proteus mirabilis, read-out: M.I.C.
# Method in brief: as §2
# [24] = system: Klebsiella pneumoniae 2 536 Resistant Gentamicine; experiment: MIC, dilution in liquid medium; type: cell-based; conditions: for MIC: Klebsiella pneumoniae
# Method in brief: as §2
# [25] = system: Escherichia Coli Resistant Gentamicine, Tobramycine R 55 123 D; experiment: MIC, dilution in liquid medium; type: cell-based; conditions: for MIC: Escherichia coli
# Method in brief: as §2
# [26] = system: Escherichia Coli T 96 875; experiment: MIC, dilution in liquid medium; type: cell-based
# Method in brief: as §2
# [27] = system: Escherichia Coli 25 575; experiment: MIC, dilution in liquid medium; type: cell-based
# Method in brief: as §2
# [28] = system: Staphylococcus aureus ATCC 5 638 Pen-Sensible = UC 1061; experiment: MIC, dilution in liquid medium; type: cell-based
# Method in brief: as §2
# [29] = system: Staphylococcus aureus Co 15 Resistant Cephalexine; experiment: MIC, dilution in liquid medium; type: cell-based
# Method in brief: as §2
# [30] = Enterococcus faecalis, 5432, 24 h, 24 H
structure (smiles),measurement,setting,value
"CO/N=C(\C(=O)N[C@@H]1C(=O)N2C(C(=O)O)=C(COC(C)=O)CS[C@H]12)c1csc(N)n1 [Example 4, 3-acetoxymethyl-7-[2-(2-amino-4-thiazolyl)-2-methoxyiminoacetamido]-ceph-3-eme-4-carboxylic acid]",mice alive after 8 days,[1]; 0.05 mg subcutaneously,10/10
same,deaths after 28.5 h (out of 10 mice),[1]; 0.1 mg orally,1
same,mice alive after 8 days,[1]; 0.1 mg orally,9/10
same,mice alive after 8 days,[1]; 0.1 mg subcutaneously (first line),10/10
same,mice alive after 8 days,[1]; 0.1 mg subcutaneously (second line),10/10
same,mice alive after 8 days,[1]; 0.25 mg orally,10/10
same,mice alive after 8 days,[1]; 0.25 mg subcutaneously,10/10
same,mice alive after 8 days,[1]; 0.5 mg orally,10/10
same,MORTALITY AFTER 9H 35,"[2]; 0,1 mg OS",1
same,MORTALITY AFTER 24H,"[2]; 0,1 mg OS",1
same,MORTALITY AFTER 32H,"[2]; 0,1 mg OS",2
same,MORTALITY AFTER 70H,"[2]; 0,1 mg OS",1
same,Mice alive on the 8th Day,"[2]; 0,1 mg OS",5/10
same,MORTALITY AFTER 22H 30,"[2]; 0,05 mg OS",4
same,MORTALITY AFTER 24H,"[2]; 0,05 mg OS",1
same,MORTALITY AFTER 31H,"[2]; 0,05 mg OS",1
same,MORTALITY AFTER 32H,"[2]; 0,05 mg OS",2
same,Mice alive on the 8th Day,"[2]; 0,05 mg OS",2/10
same,Mice alive on the 8th Day,"[2]; 0,05 mg S.C.",10/10
same,Mice alive on the 8th Day,"[2]; 0,25 mg OS",10/10
same,MORTALITY AFTER 22H 30,"[2]; 0,015 mg S.C.",2
same,MORTALITY AFTER 23H 50,"[2]; 0,015 mg S.C.",2
same,MORTALITY AFTER 46H 30,"[2]; 0,015 mg S.C.",2
same,Mice alive on the 8th Day,"[2]; 0,015 mg S.C.",4/10
same,MORTALITY AFTER 4j,"[2]; 0,025 mg S.C.",2
same,MORTALITY AFTER 25H 50,"[2]; 0,025 mg S.C.",1
same,MORTALITY AFTER 26H 30,"[2]; 0,025 mg S.C.",1
same,Mice alive on the 8th Day,"[2]; 0,025 mg S.C.",6/10
same,MIC,"[3]; Enterobacter cloacae, 681, 24 h",40 µg/mL
same,MIC,"[3]; Enterobacter cloacae, 681, 48 h",40 µg/mL
same,MIC,"[4]; 24 h, read-out: M.I.C.",10 µg/mL
same,MIC,[4]; 48 h,40 µg/mL
same,MIC,"[5]; 24 h, read-out: M.I.C.",3 µg/mL
same,MIC,[5]; 48 h,3 µg/mL
same,M.I.C.,[6]; 48 H,"0,2 μg/ml"
same,MIC,"[6]; ATCC9, 24 h, 24 H, read-out: M.I.C.",0.2 µg/mL
same,M.I.C.,[7]; 24 H,5 µg/mL
same,M.I.C.,[7]; 48 H,5 µg/mL
same,MIC,"[8]; UC1, 24 h, 24 H",2 µg/mL
same,MIC,"[8]; UC1, 48 h, 48 H",2 µg/mL
same,MIC,"[9]; 24 h, read-out: M.I.C.",0.2 µg/mL
same,MIC,"[9]; 48 h, read-out: M.I.C.",0.2 µg/mL
same,MIC,[10]; 24 h,1 µg/mL
same,MIC,[10]; 48 h,1 µg/mL
same,M.I.C.,[11]; 48 H,"0,05 μg/ml"
same,MIC,"[11]; A561, 24 h, 24 H",0.02 µg/mL
same,M.I.C.,[12]; 24 H,2 µg/mL
same,M.I.C.,[12]; 48 H,40 µg/mL
same,MIC,"[13]; COLIE6, 24 h",0.05 µg/mL
same,MIC,"[13]; COLIE6, 48 h",0.05 µg/mL
same,M.I.C.,[14]; 24 H,"0,2 μg/ml"
same,MIC,"[14]; ATCC6, 48 h, 48 H, read-out: M.I.C.",1 µg/mL
same,MIC,[15]; 48 h,0.1 µg/mL
same,MIC,"[16]; EXP.52145, 24 h, 24 H",0.02 µg/mL
same,MIC,"[16]; EXP.52145, 48 h, 48 H",0.02 µg/mL
same,MIC,[17]; [30],2 µg/mL
same,MIC,"[17]; Enterococcus faecalis, 5432, 48 h, 48 H",2 µg/mL
same,MIC,"[18]; 99F74, 24 h, 24 H",2 µg/mL
same,MIC,"[18]; 99F74, 48 h, 48 H",3 µg/mL
same,MIC,[19]; 24 h,0.1 µg/mL
same,MIC,[19]; 48 h,0.2 µg/mL
same,MIC,[20]; 24 h,40 µg/mL
same,MIC,[20]; 48 h,> 40 µg/mL
same,MIC,"[21]; 24 h, read-out: M.I.C.",1 µg/mL
same,MIC,"[21]; 48 h, read-out: M.I.C.",1 µg/mL
same,MIC,[22]; 24 h,0.02 µg/mL
same,MIC,[22]; 48 h,0.02 µg/mL
same,MIC,[23]; 24 h,0.02 µg/mL
same,MIC,[23]; 48 h,0.02 µg/mL
same,M.I.C.,[24]; 24 H,"0,6 μg/ml"
same,M.I.C.,[24]; 48 H,"0,6 μg/ml"
same,M.I.C.,[25]; 24 H,"0,6 μg/ml"
same,M.I.C.,[25]; 48 H,"0,6-1 μg/ml"
same,MIC,"[26]; COLIT96875, 24 h",0.05 µg/mL
same,MIC,"[26]; COLIT96875, 48 h",0.05 µg/mL
same,MIC,"[27]; COLI25575, 24 h",0.05 µg/mL
same,MIC,"[27]; COLI25575, 48 h",0.05 µg/mL
same,MIC,"[28]; 24 h, read-out: M.I.C.",1 µg/mL
same,MIC,"[28]; 48 h, read-out: M.I.C.",1 µg/mL
"C=CCO/N=C(\C(=O)N[C@@H]1C(=O)N2C(C(=O)O)=C(COC(C)=O)CS[C@H]12)c1csc(N)n1 [Example 9, 3-acetoxymethyl-7-[2-(2-amino-4-thiazolyl)-2-(2-propenyl)oxyiminoacetamido]-ceph-3-eme-4-carboxylic acid]",MIC,[4]; 24 h,20 µg/mL
same,MIC,[4]; 48 h,20 µg/mL
same,MIC,[5]; 24 h,2 µg/mL
same,MIC,[5]; 48 h,2 µg/mL
same,MIC,"[6]; ATCC9, 24 h, 24 H",1 µg/mL
same,MIC,"[6]; ATCC9, 48 h, 48 H",1 µg/mL
same,MIC,"[7]; DU48, 24 h, 24 H",3 µg/mL
same,MIC,"[7]; DU48, 48 h, 48 H",5 µg/mL
same,MIC,"[8]; UC1, 24 h, 24 H",2 µg/mL
same,MIC,"[8]; UC1, 48 h, 48 H",2 µg/mL
same,MIC,[9]; 24 h,1 µg/mL
same,MIC,"[9]; 48 h, read-out: M.I.C.",10 µg/mL
same,MIC,"[11]; A561, 24 h, 24 H",0.02 µg/mL
same,MIC,"[11]; A561, 48 h, 48 H",0.02 µg/mL
same,MIC,"[12]; Proteus vulgaris, 24 h",2 µg/mL
same,MIC,"[14]; ATCC6, 24 h, 24 H",1 µg/mL
same,MIC,"[14]; ATCC6, 48 h, 48 H",1 µg/mL
same,MIC,[15]; 24 h,1 µg/mL
same,MIC,[15]; 48 h,1 µg/mL
same,MIC,"[16]; EXP.52145, 24 h, 24 H",0.05 µg/mL
same,MIC,"[16]; EXP.52145, 48 h, 48 H",0.1 µg/mL
same,MIC,[17]; [30],2 µg/mL
same,MIC,"[17]; Enterococcus faecalis, 5432, 48 h, read-out: M.I.C.",10 µg/mL
same,MIC,"[21]; 24 h, read-out: M.I.C.",0.4 µg/mL
same,MIC,[21]; 48 h,1 µg/mL
same,MIC,[22]; 24 h,0.1 µg/mL
same,MIC,[22]; 48 h,0.1 µg/mL
same,MIC,[24]; 24 h,2 µg/mL
same,MIC,[24]; 48 h,5 µg/mL
same,MIC,"[29]; 24 h, read-out: M.I.C.",10 µg/mL
same,MIC,[29]; 48 h,20 µg/mL
same,MIC,[25]; 24 h,1 µg/mL
same,MIC,[25]; 48 h,1 µg/mL
same,MIC,[28]; 24 h,1 µg/mL
same,MIC,[28]; 48 h,2 µg/mL

# From patent publication US4196205A, “3-Acetoxymethyl-7-(iminoacetamido)-cephalosporanic acid derivatives” (priority 1976, dated 1980)
